What was measured:
[1] = test system: rat model for parathyroid bone disease; experiment: Rat model for parathyroid bone disease: pulsatile vs continuous PTH, bone histomorphometry; assay type: in vivo
Experimental: Induction of parathyroid bone disease. Three month-old female Sprague-Dawley rats (Harlan Sprague-Dawley, Inc., Indianapolis, Ind.) were randomly divided into 3 groups, with 5 rats per group. In group 1 (pulsatile or intermittent PTH), each rat received 80 μg/kg/day human PTH (1-34) (hPTH) in vehicle (150 mM NaCl, 1 mM HCl and 2% heat-inactivated rat serum) by subcutaneous (s.c.) injection once daily for 7 days. In group 2 (vehicle), an osmotic pump (Alza Corp., Mountainview, Calif.) that delivered vehicle alone at a rate of 1 μl/hr for 7 days was implanted in each rat. In group 3 (continuous PTH), an osmotic pump that delivered 40 μg/kg/day hPTH at a rate of 1 μl/hr for 7 days was implanted in each rat. On day 8, all rats were anesthetized with ketamine (50 mg/kg): xylazine HCl (5 mg/kg) and sacrificed by decapitation. Both tibiae were removed from each rat. Right tibiae were fixed by immersion in 70% ethanol then processed for bone histology to verify the appearance of peritrabecular fibrosis. Left tibiae were frozen in liquid N2 and stored at −80° C. until processed for RNA isolation.
Bone histomorphometry. Proximal metaphyses were dehydrated in a graded series of ethanol, then infiltrated and embedded in methymethacrylate (Fisher Scientific, Fair Lawn, N.J.). After embedding, 5 μm sections were cut using a microtome (Reichert-Jung Model 2065, Heidelberg, Germany), and the sections were mounted unstained. Dynamic histomorphometric cancellous bone measurements were made in the unstained sections using fluorescent microscopy to detect the injected tetracycline and calcein markers. After obtaining the cancellous bone measurements, consecutive sections were stained with toluidine blue for bone cell and peritrabecular fibrosis measurements using light microscopy. A standard sampling site of 2.8 mm was located in the secondary spongiosa of the metaphysis at 1.5 mm distal to the growth plate.
All histomorphometric measurements were made with an Osteomeasure image analysis system (OsteoMetrics, Atlanta, Ga.) coupled to a photomicroscope and personal computer. All parameters were calculated according to standardized nomenclature. See, for example, Parfitt et al., J. Bone Miner. Res., 2:595-610 (1987). Bone volume was defined as the percentage of tissue volume consisting of cancellous bone. Tetracycline and calcein labels were determined as the percentage of bone perimeter labeled with fluorochrome. Mineral apposition rate (MAR) was defined as the average width between tetracycline and calcein label divided by interlabel time of 6 days. Bone formation rate (BFR) was defined as the product of MAR and the calcein label perimeter, and was expressed per bone surface (BFR/BS), bone volume (BFR/BV), or tissue volume (BFR/TV). Osteoblast surface was defined as a palisade of large basophilic cuboidal cells directly lying on top of the osteoid, and was expressed as a percent of bone perimeter. Osteoclast surface was defined as the bone perimeter lined by multinucleated cells regardless of the presence of erosion. Fibrotic perimeter was defined as the bone perimeter lined by multilayers of fibroblasts.
A rat model of hyperparathyroidism (HPT) was developed as described in Example 1, and compared to intermittent PTH treatment. PTH results in major changes in bone metabolism in less than 1 week and these short-term changes accurately predict the long-terms effects of the hormone. To induce an anabolic course of PTH action, human recombinant PTH was administered s.c. (80 μg/kg/d). […] In contrast, no increase in osteoclast number was noted.
To mimic HPT, hPTH was infused continuously at the same dose rate (80 μg/kg/d) using a s.c. implanted osmotic pump. […] In addition, bone formation in rats treated continuously or intermittently with PTH had similar increases in bone formation after 1 week. Cancellous osteopenia was not observed. […]

Serum chemistry and PTH = assay type: in vivo, rat; conditions: rats
Experimental: Treatment protocol. Three month-old female Sprague-Dawley rats were divided into 4 groups. In group 1 (n=9), osmotic pumps that delivered vehicle alone at a rate of 1 μl/hr for 7 days were implanted in each rat. […] In groups 3 and 4 (n=8 and 10, respectively), osmotic pumps were implanted in each rat that delivered 40 μg/kg/day hPTH at a rate of 1 μl/hr for 7 days. […] Tetracycline (20 mg/kg, Sigma Chemical Co., St. Louis, Mo.) and calcein (20 mg/kg, Sigma) fluorochrome labels were injected at the base of the tail on day 0 (tetracycline) and day 6 (calcein). On day 8, all rats were anesthetized and blood was collected by cardiac puncture. The blood samples were used to determine serum chemistry and PTH levels. Following blood collection, the rats were sacrificed by cervical dislocation, and tibiae were surgically removed and fixed in 70% ethanol for bone histomorphometry.
Serum chemistry and PTH. Total serum calcium, phosphate, and magnesium levels were measured in rat blood samples by Central Clinical Laboratory Research at the Mayo Clinic using automated procedures. Serum PTH was measured using an immunoradiometric assay for rat PTH (Immunotopics International, LLC, San Clementa, Calif.) that has approximately 100% cross-reactivity to human PTH.
Serum and bone samples were collected after 7 days and analyzed.

[2] = test system: osteoblasts and peritrabecular fibroblasts; experiment: 3H-thymidine autoradiography; assay type: in vivo, rat; conditions: continuous PTH 1 week with continuous 3H-thymidine infusion, rats
Experimental: ^3H-thymidine autoradiography was performed to determine the role of cell proliferation in contributing to the increases in osteoblasts and fibroblasts following continuous administration of PTH. ^3H-thymidine was infused continuously for the entire 1-week duration of PTH treatment in order to label all proliferating cells. […] Thus, it seems that PTH-induced osteoblasts and fibroblasts originate by different cellular pathways.

[3] = test system: rat model for parathyroid bone disease; experiment: Rat model for parathyroid bone disease: pulsatile vs continuous PTH, bone histomorphometry; assay type: in vivo; conditions: rats
[4] = test system: PTH-induced marrow fibrosis and osteoclast resorption; experiment: Bone histomorphometry in rats given trapidil, continuous PTH or both; assay type: in vivo, rat; conditions: continuous PTH, significant upon two-way ANOVA
[5] = pulsatile PTH 80 μg/kg/day s.c. once daily 7 days, rats
[6] = pulsatile PTH 80 μg/kg/day s.c. once daily 7 days, rats, vs untreated control
[7] = day 8, trapidil 40 mg/kg/day s.c. 7 days, hPTH 40 μg/kg/day continuous by osmotic pump 7 days, mean ± SEM
[8] = continuous PTH 40 μg/kg/day osmotic pump 7 days
[9] = continuous PTH 40 μg/kg/day osmotic pump 7 days, vs untreated control
[10] = continuous PTH infusion 40 μg/kg/d

human PTH (1-34)
osteoclast number ([1]; PTH s.c. 80 μg/kg/d, rats): no increase | Cancellous osteopenia ([1]; PTH-treated rats, 1 week): not observed | PTH pulse duration having the same effect as continuous PTH ([1]; programmed implantable osmotic pump, same quantity of PTH, rats): 6 h | Marrow fibrosis [1, 5]: Not observed^a | Osteoid surface [1, 5]: Minimal^a | Osteoblast perimeter [1, 6]: ↑^a | mRNA levels for one matrix proteins [1, 6]: ↑^a | serum chemistry effect of continuous PTH (Serum chemistry and PTH; continuous PTH 40 μg/kg/day 7 days): induced hypercalcemia and hyperparathyroidism | Serum Calcium (Serum chemistry and PTH; [7]): 11.65 ± 0.28^ab mg/dl | Serum Magnesium (Serum chemistry and PTH; [7]): 2.49 ± 0.04 mg/dL | Serum PTH (Serum chemistry and PTH; [7]): 98.27 ± 11.12^ab pg/ml | Serum Phosphorus (Serum chemistry and PTH; [7]): 7.95 ± 0.48 mg/dL | 3H-thymidine labeling of PTH-induced osteoblasts [2]: unlabeled | 3H-thymidine labeling of most of the peritrabecular fibroblasts induced by PTH [2]: labeled | time to increase in 3H-proline incorporation into bone matrix proteins ([3]; PTH s.c. 80 μg/kg/d): ≤ 24 h | time to increase in the number of fully mature osteoblasts ([3]; PTH s.c. 80 μg/kg/d): ≤ 3 days | time to upregulation of mRNA levels for bone matrix proteins (type I collagen, osteonectin, osteocalcin) ([3]; PTH s.c. 80 μg/kg/d): ≤ 16 h | Marrow fibrosis [3, 8]: Extensive^b | Osteoid surface [3, 8]: Extensive^b | Bone formation rate [3, 9]: ↑^a | Osteoblast perimeter [3, 9]: ↑^a | Osteoclast perimeter [3, 9]: ↑^b | mRNA levels for one matrix proteins [3, 9]: ↑^a | detrimental skeletal effects of continuous PTH [3, 10]: extensive peritrabecular fibrosis, osteomalacia, increased bone formation, and focal bone resorption | systemic side effects on reducing the dose rate [3, 10]: greatly reduced systemic side effects | systemic effects of continuous release ([3]; hPTH infused continuously 80 μg/kg/d, s.c. osmotic pump): severe hypercalcemia and weight loss | daily PTH pulse duration at which detrimental side effects were observed ([3]; programmed implantable osmotic pump, same quantity of PTH): ≥ 2 h | Bone formation rate ([3]; pulsatile PTH 80 μg/kg/day s.c. once daily 7 days, vs untreated control): ↑^a | effect on serum calcium levels ([3]; subcutaneous PTH 80 μg/kg/d): no effect | rate of mineral apposition [4]: slightly increased
